Results as given in the supplement of paper PMC10307832.

Key:
Experiment in all cases: relative viability (nuclei count vs DMSO), 5 days (fraction); higher = more cells survive
[1] = system: NCI-H1975
Procedure, shortened: (§1)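 Lung cancer cell lines were seeded in 1536-well plates and dosed by pin tool the next day, with either a single drug or a fixed anchor-drug dose combined with five library-drug doses (not always all listed) spaced in √10 steps. Five days later, one step fixed the cells and stained their nuclei (final 0.05% Triton X-100, 1% formaldehyde, 1 ug/ml Hoechst), and nuclei were counted on 4× images. Relative viability is the nuclei count in treated wells divided by the count in vehicle wells, and each value is the median of duplicate plates.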

[2] = system: SK-MES-1
Procedure, shortened: as §1

[3] = system: RERF-LC-KJ
Procedure, shortened: as §1

[4] = system: NCI-H1395
Procedure, shortened: as §1

[5] = system: NCI-H2087
Procedure, shortened: as §1

[6] = system: NCI-H2085
Procedure, shortened: as §1

[7] = system: NCI-H1993
Procedure, shortened: as §1

[8] = system: A-427
Procedure, shortened: as §1

[9] = system: NCI-H2023
Procedure, shortened: as §1

[10] = system: EPLC-272H
Procedure, shortened: as §1

[11] = system: NCI-H2170
Procedure, shortened: as §1

[12] = system: COR-L 105
Procedure, shortened: as §1

[13] = system: NCI-H1651
Procedure, shortened: as §1

[14] = system: NCI-H647
Procedure, shortened: as §1

[15] = system: LCLC-103H
Procedure, shortened: as §1

[16] = system: NCI-H650
Procedure, shortened: as §1

[17] = system: NCI-H596
Procedure, shortened: as §1

[18] = system: HOP-62
Procedure, shortened: as §1

[19] = system: CAL-12T
Procedure, shortened: as §1

[20] = system: COR-L23
Procedure, shortened: as §1

[21] = system: PC-14
Procedure, shortened: as §1

[22] = system: LXF-289
Procedure, shortened: as §1

[23] = system: NCI-H3122
Procedure, shortened: as §1

Q: Which results are given for `Cc1cnc(-c2cnc(NCCNc3ccc(C#N)cn3)nc2-c2ccc(Cl)cc2Cl)[nH]1` + N=C(N)NC(=N)NCCc1ccccc1 [Phenformin] (partner 250 µM)?
A: relative viability ([1]; first compound 0.08 µM): 0.418; relative viability ([1]; first compound 0.253 µM): 0.405; relative viability ([1]; first compound 0.8 µM): 0.384; relative viability ([1]; first compound 2.53 µM): 0.286; relative viability ([2]; first compound 0.08 µM): 0.643; relative viability ([2]; first compound 0.253 µM): 0.648; relative viability ([2]; first compound 0.8 µM): 0.72; relative viability ([2]; first compound 2.53 µM): 0.584; relative viability ([3]; first compound 0.08 µM): 0.436; relative viability ([3]; first compound 0.253 µM): 0.445; relative viability ([3]; first compound 0.8 µM): 0.426; relative viability ([3]; first compound 2.53 µM): 0.354; relative viability ([4]; first compound 0.08 µM): 0.483; relative viability ([4]; first compound 0.253 µM): 0.424; relative viability ([4]; first compound 0.8 µM): 0.45; relative viability ([4]; first compound 2.53 µM): 0.431; relative viability ([5]; first compound 0.08 µM): 0.571; relative viability ([5]; first compound 0.253 µM): 0.379; relative viability ([5]; first compound 0.8 µM): 0.442; relative viability ([5]; first compound 2.53 µM): 0.329; relative viability ([6]; first compound 0.08 µM): 0.735; relative viability ([6]; first compound 0.253 µM): 0.688; relative viability ([6]; first compound 0.8 µM): 0.686; relative viability ([6]; first compound 2.53 µM): 0.691; relative viability ([7]; first compound 0.08 µM): 0.493; relative viability ([7]; first compound 0.253 µM): 0.477; relative viability ([7]; first compound 0.8 µM): 0.521; relative viability ([7]; first compound 2.53 µM): 0.535; relative viability ([8]; first compound 0.08 µM): 0.307; relative viability ([8]; first compound 0.253 µM): 0.327; relative viability ([8]; first compound 0.8 µM): 0.378; relative viability ([8]; first compound 2.53 µM): 0.342; relative viability ([9]; first compound 0.08 µM): 0.436; relative viability ([9]; first compound 0.253 µM): 0.413; relative viability ([9]; first compound 0.8 µM): 0.422; relative viability ([9]; first compound 2.53 µM): 0.33; relative viability ([10]; first compound 0.08 µM): 0.333; relative viability ([10]; first compound 0.253 µM): 0.318; relative viability ([10]; first compound 0.8 µM): 0.315; relative viability ([10]; first compound 2.53 µM): 0.316; relative viability ([11]; first compound 0.08 µM): 0.422; relative viability ([11]; first compound 0.253 µM): 0.351; relative viability ([11]; first compound 0.8 µM): 0.412; relative viability ([11]; first compound 2.53 µM): 0.348; relative viability ([12]; first compound 0.08 µM): 0.532; relative viability ([12]; first compound 0.253 µM): 0.487; relative viability ([12]; first compound 0.8 µM): 0.53; relative viability ([12]; first compound 2.53 µM): 0.357; relative viability ([13]; first compound 0.08 µM): 0.383; relative viability ([13]; first compound 0.253 µM): 0.494; relative viability ([13]; first compound 0.8 µM): 0.32; relative viability ([13]; first compound 2.53 µM): 0.324; relative viability ([14]; first compound 0.08 µM): 0.598; relative viability ([14]; first compound 0.253 µM): 0.362; relative viability ([14]; first compound 0.8 µM): 0.391; relative viability ([14]; first compound 2.53 µM): 0.28; relative viability ([15]; first compound 0.08 µM): 0.273; relative viability ([15]; first compound 0.253 µM): 0.342; relative viability ([15]; first compound 0.8 µM): 0.31; relative viability ([15]; first compound 2.53 µM): 0.3; relative viability ([16]; first compound 0.08 µM): 0.468; relative viability ([16]; first compound 0.253 µM): 0.438; relative viability ([16]; first compound 0.8 µM): 0.489; relative viability ([16]; first compound 2.53 µM): 0.417; relative viability ([17]; first compound 0.08 µM): 0.834; relative viability ([17]; first compound 0.253 µM): 0.763; relative viability ([17]; first compound 0.8 µM): 0.595; relative viability ([17]; first compound 2.53 µM): 0.761; relative viability ([18]; first compound 0.08 µM): 0.754; relative viability ([18]; first compound 0.253 µM): 0.596; relative viability ([18]; first compound 0.8 µM): 0.685; relative viability ([18]; first compound 2.53 µM): 0.427; relative viability ([19]; first compound 0.08 µM): 0.655; relative viability ([19]; first compound 0.253 µM): 0.511; relative viability ([19]; first compound 0.8 µM): 0.597; relative viability ([19]; first compound 2.53 µM): 0.579; relative viability ([20]; first compound 0.08 µM): 0.493; relative viability ([20]; first compound 0.253 µM): 0.449; relative viability ([20]; first compound 2.53 µM): 0.408; relative viability ([21]; first compound 0.08 µM): 0.586; relative viability ([21]; first compound 0.253 µM): 0.413; relative viability ([21]; first compound 0.8 µM): 0.568; relative viability ([21]; first compound 2.53 µM): 0.421; relative viability ([22]; first compound 0.08 µM): 0.508; relative viability ([22]; first compound 0.253 µM): 0.482; relative viability ([22]; first compound 0.8 µM): 0.536; relative viability ([22]; first compound 2.53 µM): 0.503; relative viability ([23]; first compound 0.08 µM): 0.367; relative viability ([23]; first compound 0.8 µM): 0.383; relative viability ([23]; first compound 2.53 µM): 0.327
